# Laboratory results taken from patent publication US20030134901A1, “Lipoxin compounds and their use in treating cell proliferative disorders” (priority 1993, published 2003).
# System: PLD activity in differentiated HL-60 cells
# Assay: PLD activity (PEt formation) in differentiated HL-60 cells
# Type: cell-based, human
# Details: differentiated HL-60 cells, biphasic response
# Protocol: Cell cultures and differentiation. HL-60 cells were seeded in RPMI medium supplemented with 100 U/ml penicillin, 100 μg/ml streptomycin, and 10% fetal calf serum (Hyclone, Logan, Utah), incubated at 37° C. with 5% CO2 atmosphere in 250 ml flasks. Individual flasks containing ˜[…] next received dimethyl sulfoxide (DMSO) (1.12% v/v, 120 h) or retinoic acid (RA) (1 μM, 120 h) or phorbol myristate acetate (PMA) (20 nM, 48 h). Before performing binding assays, cells were washed twice in phosphate buffered saline (PBS), Ca^2+- and Mg^2+-free, enumerated and suspended at 20×10^6 cells/ml in Tris buffer (10 mM), pH 7.4 (Fiore, S. et al.(1992) J. Biol. Chem. 267:16168). Nitro blue tetrazolium reduction was performed to monitor induction of polymorphonuclear phenotype as in (Imaizumi, M. and Breitman, T. R. (1986) Blood 67:1273), and cell adherence was determined for induction of macrophage-like phenotype (Collins, S. J. (1987) Blood 70:1273). Human umbilical vein endothelial cells (HUVEC) maintained in culture third passage were obtained from Dr. M. Gimbrone (Brigham and Women's Hospital Department of Pathology).
# PLD activity. Human PMN and HL-60 cells (50×10^6 cells/ml) prepared as above were incubated with ^3H-myristic acid or ^3H-palmitic acid (8 μCi/50×10^6 cells) for 40-60 min at 37° C. in PBS. Cell uptake ranged between 60-80% of added label, 7.1±4.2% (n=10; mean ±S.D.) and 32.6±10.3% (n=6; mean ±S.D.) into total phospholipid classes of PMN and HL-60 cells, respectively. Incubations were carried out at 37° C. (10 ×10^6 cells/ml PBS). […] At indicated times, incubations were stopped by adding 3.5 ml of ice cold CHCl3/MeOH (2/5, v/v) containing 1-^14C-arachidonic acid (5,000 cpm) used here as internal standard to quantitate extraction recoveries. […] Regions corresponding to PA, PEt, and internal standards were scraped and quantified by liquid scintillation counting. […] All values reported for PEt formation in Tables 4 and 5 were calculated by subtracting the dpm obtained in the presence of […]. […]
structure (smiles),measurement,value
"CCCCC[C@H](O)/C=C/C=C\C=C\C=C\[C@@H](O)[C@@H](O)CCCC(=O)O [LXA4, (5S, 6R, 15S)-trihydroxy-7E, 9E, 11Z, 13E-eicosatetraenoic acid]","concentration of apparent maximum, PEt formation",10^−9 M
